Experimental data as given in US20070191356A1, “Pyridobenzoxazine derivative” (priority 2004, published 2007).
≈ marks a conversion by molar mass, not a printed value. Where two headings read alike, the source gives them in different places.

Tests used:
[1] = test system: Ps. aeruginosa, 32104; experiment: Antimicrobial activity MIC, standard method of Japanese Society of Chemotherapy; assay type: cell-based
Protocol: (§1) The antimicrobial activity of the compounds of the present invention is measured in accordance with the standard method designated by Japanese Society of Chemotherapy and MIC (microgram/ml) values are shown as its results in Table 1.

[2] = test system: S. aureus, 870307; experiment: as above; assay type: cell-based
Protocol: as §1

[3] = test system: Ser. marcescens, 10100; experiment: as above; assay type: cell-based
Protocol: as §1

[4] = test system: S. epidermidis, 56500; experiment: as above; assay type: cell-based
Protocol: as §1

[5] = test system: Str. pneumoniae, J24; experiment: as above; assay type: cell-based
Protocol: as §1

[6] = test system: Pr. vulgalis, 08601; experiment: as above; assay type: cell-based
Protocol: as §1

[7] = test system: Str. pyogenes, G-36; experiment: as above; assay type: cell-based
Protocol: as §1

[8] = test system: S. flexneri, 2A 5503; experiment: as above; assay type: cell-based
Protocol: as §1

[9] = test system: K. pneumoniae, Type I; experiment: as above; assay type: cell-based
Protocol: as §1

[10] = test system: Ps. aeruginosa, 32121; experiment: as above; assay type: cell-based
Protocol: as §1

[11] = test system: S. maltophilia, IID-1275; experiment: as above; assay type: cell-based
Protocol: as §1

[12] = test system: Str. faecalis, ATCC-19433; experiment: as above; assay type: cell-based
Protocol: as §1

[13] = test system: S. aureus, 209P; experiment: as above; assay type: cell-based
Protocol: as §1

[14] = test system: E. coli, NIHJ; experiment: as above; assay type: cell-based
Protocol: as §1

[15] = test system: Slc:ddY male mice; experiment: Single intravenous dosing toxicity test in mice; assay type: in vivo; details: single intravenous dose 150 mg/kg, six-week-old Slc:ddY male mice
Protocol: The single intravenous dosing toxicity test in mice using the invention compound was carried out in the following manner. The compound was dissolved in and diluted with 0.1 mol/l NaOH/physiological saline. After the diluted solution was sterilized by filtration through a 0.22 μm filter of Millex GS, the resulting sterilized solution was intravenously administered to six-week-old Slc:ddY male mice at an administration rate of 10 ml/kg or 0.2 ml/min as a single dose. Similar to Test 1, the compound obtained in Example 2 of Patent Document 2 was employed as a comparative compound.

[16] = Pseudomonas aeruginosa, 32104, Ps. aeruginosa, read-out: MIC
[17] = Serratia marcescens, 10100, Ser. marcescens, read-out: MIC
[18] = Staphylococcus epidermidis, 56500, S. epidermidis, read-out: MIC
[19] = Streptococcus pneumoniae, J24, Str. pneumoniae, read-out: MIC
[20] = Klebsiella pneumoniae, read-out: MIC
[21] = Pseudomonas aeruginosa, 32121, Ps. aeruginosa, read-out: MIC
[22] = Stenotrophomonas maltophilia, IID1275, S. maltophilia, read-out: MIC
[23] = Enterococcus faecalis, ATCC19433, Str. faecalis, read-out: MIC
[24] = Staphylococcus aureus, read-out: MIC
[25] = Ps. aeruginosa, listed as Ex. 3
[26] = Staphylococcus aureus, 870307, S. aureus, read-out: MIC
[27] = Streptococcus pyogenes, G36, Str. pyogenes, read-out: MIC
[28] = Shigella flexneri, 2A5503, S. flexneri, read-out: MIC
[29] = Escherichia coli, read-out: MIC

SMILES	melting point [°C]	MIC [1, 16] [µg/mL]	MIC [3, 17] [µg/mL]	MIC [4, 18] [µg/mL]	MIC [5, 19] [µg/mL]	MIC [9, 20] [µg/mL]	MIC [10, 21] [µg/mL]	MIC [11, 22] [µg/mL]	MIC [12, 23] [µg/mL]	MIC [13, 24] [µg/mL]	MIC [2, 26] [µg/mL]	MIC ([6]; read-out: MIC) [µg/mL]	MIC [7, 27] [µg/mL]	MIC [8, 28] [ng/mL]	MIC [14, 29] [ng/mL]	also measured
C[C@H]1COc2c(N3CC(N)C(C(F)F)C3)c(F)cc3c(=O)c(C(=O)O)cn1c23 (single isomer, unassigned) [Example 2]	247 to 252	0.2 (≈ 0.503 µM)	0.05 (≈ 0.126 µM)	0.1 (≈ 0.252 µM)	0.2 (≈ 0.503 µM)	0.05 (≈ 0.126 µM)	0.05 (≈ 0.126 µM)	0.2 (≈ 0.503 µM)	0.39 (≈ 0.981 µM)	0.025 (≈ 0.0629 µM)						MIC ([2]; S. aureus, listed as Ex. 2): 1.56 microgram/ml; MIC ([6]; listed as Ex. 2): 0.012 microgram/ml; MIC ([7]; Str. pyogenes, listed as Ex. 2): 0.2 microgram/ml; MIC ([8]; S. flexneri, listed as Ex. 2): 0.012 microgram/ml; MIC ([14]; listed as Ex. 2): ≦0.003 microgram/ml
C[C@H]1COc2c(N3CC(N)C(C(F)F)C3)c(F)cc3c(=O)c(C(=O)O)cn1c23 (single isomer, unassigned) [Example 3]	264 to 268															MIC [1, 25]: 0.39 microgram/ml; MIC ([2]; S. aureus, listed as Ex. 3): 3.13 microgram/ml; MIC ([3]; Ser. marcescens, listed as Ex. 3): 0.1 microgram/ml; MIC ([4]; S. epidermidis, listed as Ex. 3): 0.2 microgram/ml; MIC ([5]; Str. pneumoniae, listed as Ex. 3): 0.39 microgram/ml; MIC ([6]; listed as Ex. 3): 0.025 microgram/ml; MIC ([7]; Str. pyogenes, listed as Ex. 3): 0.78 microgram/ml; MIC ([8]; S. flexneri, listed as Ex. 3): 0.025 microgram/ml; MIC ([9]; listed as Ex. 3): 0.1 microgram/ml; MIC [10, 25]: 0.1 microgram/ml; MIC ([11]; S. maltophilia, listed as Ex. 3): 0.39 microgram/ml; MIC ([12]; Str. faecalis, listed as Ex. 3): 0.78 microgram/ml; MIC ([13]; listed as Ex. 3): 0.05 microgram/ml; MIC ([14]; listed as Ex. 3): 0.012 microgram/ml
O=C(O)c1cn(C2CC2)c2cc(N3CCNCC3)c(F)cc2c1=O [CPFX, ciprofloxacin, reference compound]		0.005 (≈ 0.0151 µM)	0.025 (≈ 0.0754 µM)	0.2 (≈ 0.604 µM)	0.1 (≈ 0.302 µM)	0.025 (≈ 0.0754 µM)	0.025 (≈ 0.0754 µM)	0.78 (≈ 2.35 µM)	0.78 (≈ 2.35 µM)	0.1 (≈ 0.302 µM)	3.13 (≈ 9.45 µM)	≤ 0.003	1.56 (≈ 4.71 µM)	6 (≈ 0.0181 µM)	≤ 3	
COc1c(N2C[C@H](CF)[C@H](N)C2)c(F)cc2c(=O)c(C(=O)O)cn(C3CC3)c12 [Comparative Compound, reference compound]		0.2 (≈ 0.508 µM)	0.05 (≈ 0.127 µM)	0.05 (≈ 0.127 µM)	0.025 (≈ 0.0636 µM)	0.025 (≈ 0.0636 µM)	0.05 (≈ 0.127 µM)	0.05 (≈ 0.127 µM)	0.1 (≈ 0.254 µM)	0.012 (≈ 0.0305 µM)	0.39 (≈ 0.991 µM)	0.006 (≈ 0.0153 µM)	0.1 (≈ 0.254 µM)	6 (≈ 0.0153 µM)	≤ 3	Number of deaths/total number ([15]; 150 mg/kg): 3/5; Number of deaths/total number ([15]; listed as comparative compound, 150 mg/kg): three of five mice died
C[C@H]1COc2c(N3C[C@H](CF)[C@H](N)C3)c(F)cc3c(=O)c(C(=O)O)cn1c23 [Example 1, 10-[3-(S)-Amino-4-(S)-fluoromethylpyrrolidin-1-yl]-9-fluoro-2,3-dihydro-3-(S)-methyl-7-oxo-7H-pyridol-[1,2,3-de][1,4]benzoxazine-6-carboxylic acid]		0.1 (≈ 0.264 µM)	0.05 (≈ 0.132 µM)	0.1 (≈ 0.264 µM)	0.1 (≈ 0.264 µM)	0.05 (≈ 0.132 µM)	0.025 (≈ 0.0659 µM)	0.39 (≈ 1.03 µM)	0.2 (≈ 0.527 µM)	0.025 (≈ 0.0659 µM)	1.56 (≈ 4.11 µM)	0.012 (≈ 0.0316 µM)	0.2 (≈ 0.527 µM)	12 (≈ 0.0316 µM)	6 (≈ 0.0158 µM)	Number of deaths/total number [15]: 0/5
C[C@H]1COc2c(N3CCN(C)CC3)c(F)cc3c(=O)c(C(=O)O)cn1c23 [LVFX, levofloxacin, reference compound]		0.2 (≈ 0.553 µM)	0.1 (≈ 0.277 µM)	0.39 (≈ 1.08 µM)	0.78 (≈ 2.16 µM)	0.1 (≈ 0.277 µM)	0.1 (≈ 0.277 µM)	0.39 (≈ 1.08 µM)	0.78 (≈ 2.16 µM)	0.2 (≈ 0.553 µM)	> 6.25	0.012 (≈ 0.0332 µM)	0.2 (≈ 0.553 µM)	25 (≈ 0.0692 µM)	120 (≈ 0.332 µM)	
